Test system: BV2 microglial cells
Experiment: MTT assay for cytotoxicity toward BV2 microglial cells
Format: cell-based
Settings: 24 hours
Protocol: Cell viability was assessed using the 3-(4,5-dimethylthiazol-2-yl)-2,5-diphenyltetrazolium bromide (MTT) assay. […] The cells were then treated with 0.5 mg/ml MTT and incubated for 3 hours at 37° C. in a 5% CO2 incubator. Absorbance was read at 580 nm.

## C=CC(=O)N1CCC[C@@H](n2nc(-c3ccc(Oc4ccccc4)cc3)c3c(N)ncnc32)C1 [ibrutinib]
50 μM
  cytotoxicity in BV2 microglial cells: cell death was detected
Concentrations up to 25 μM
  cytotoxicity in BV2 microglial cells: did not induce cytotoxicity

— patent publication US11826368B2 (DAEGU GYEONGBUK INSTITUTE OF SCIENCE AND TECHNOLOGY, priority 2018, dated 2023)
